Experiments:
[1] = tested on: SOD1^G93A mice; test: Survival study in SOD1 G93A mice (neurological score, survival); type: in vivo, mouse; details: for Expected Days, Sulfasalazine: predicted from vehicle cohort if no effect
Experimental: High-copy SOD1^G93A transgenic mice were derived from the B6SJL-TgN(SOD1G93A)1Gur strain, obtained from The Jackson Laboratory (Bar Harbor, Me.) and originally produced by Gurney, e.g. Gurney et al., Science 264: 1772-1775 (1994). Animal experiments with the SOD1 model were performed at ALS Therapy Development Institute (herein “ALS-TDI”; Cambridge, Mass.). All mice were genotyped to verify copy number of the SOD1 transgene. Animal handling and study protocols were as previously described by ALS-TDI, e.g. Scott et al., Amyotroph. Lateral Scler. 9: 4-15 (2008).
Groups were balanced with respect to gender and body weight within gender. In addition, groups were age-matched and littermate-matched. […] Each cohort of was balanced between males and females.
(§1) 5 mL of 0.1 N NaOH was added and the tube gently sonicated. Approximately 140 μL of 1 N HCl was then added to bring the pH to 8.00. The resulting 20 mg/mL solution was delivered by intraperitoneal injection at 10 ml/kg. Vehicle treated mice were administered saline.
Neurological scores were assessed daily from day 50 for both hind legs. The neurological score was based on a scale of 0 to 4. Criteria used to assign each score level are from Scott et al., Amyotroph. Lateral Scler. 9: 4-15 (2008) and are described in Table 2.
The date of definitive neurological disease was the day that the mouse first scored a “2” on the Neurological Score. Upon reaching a score of Neurological Score of “4”, mice were euthanized and the date of death was recorded.
Survival after onset of definitive neurological disease is defined as the total number of days the mice lived after reaching definitive neurological disease (Neurological Score of 2) and before death (Neurological Score of 4). Survival after onset of definitive neurological disease was analyzed in two ways.
The first day that a neurological score was determined was day 50 of age; measurements were collected daily afterwards until death.
The three categories were: (1) days spent before definitive neurological disease, e.g. with a neurological score of 0 or 1; (2) days spent during definitive neurological disease, e.g. with a neurological score of 2 or 3; and (3) days at death, e.g. with a neurological score of 4. By definition, mice were only in the dead state for 1 day, as they were euthanized upon reaching a neurological score of 4; this category was included as a positive control to ensure the integrity of the data and analysis.

[2] = tested on: activated astrocytes; test: Quantitative immunohistochemistry of astrocyte activation (anti-GFAP) in the spinal cord of SOD1 mice; type: in vivo, mouse
Experimental: Two ages of mice were chosen for this analysis: day 85, when SOD1 mice show no overt sign of the ALS-like symptomology, and day 100, when SOD1 mice typically begin displaying the first signs of ALS-like symptomology, such as partial collapse of leg extension towards lateral midline (weakness) or trembling of hind legs during a tail suspension test. For the immunohistochemical studies, a total of 48 mice were divided into 6 cohorts of 8 mice each (4 females and 4 males) as shown in Table 5.
as §1
Mice were sacrificed by CO2 asphyxiation according to IACUC approved protocols. The spinal cord was extruded with cold PBS into a bath of cold PBS from the vertebral column of mice using an 18 gauge needle inserted in the sacral vertebral column to a friction fit. Upon extrusion, the spinal cord tissue was rinsed and dropped into 4% paraformaldehyde for 24 hours at room temperature (RT, approximately 25° C.). The tissue was then transferred to a 1× phosphate buffered saline (PBS) solution. Samples were then processed by TissueTek processors for paraffin embedding. Spinal cord samples were then embedded in paraffin blocks and oriented for transverse sectioning. Spinal cord samples were sectioned at 10 microns thickness. Three representative sections were cut from lumbar, thoracic and cervical regions of the spinal cord. Samples were pretreated with Pronase for 20 minutes at RT, followed by treatment with 3% H2O2 for 12 minutes at RT. Horse serum was added to 2% and samples incubated for 20 minutes at RT. The samples were then incubated with the primary antibody (Anti-xCT; purchased from Abcam (Cambridge, Mass.); Catalog #Ab37185; diluted 1:500 in PBS) overnight at 4° C. The secondary antibody (Biotin labeled goat anti-rabbit IgG; 1:500 dilution in PBS) was then added and the reaction incubated overnight at RT. Reaction products were developed using the Vector ABC system (Vector Labs, Burlingame, Calif.) using avidin-conjugated horseradish peroxidase. xCT expression was visualized by addition of the chromogenic substrate DAB (3,3′-diaminobenzidine) for 10 minutes at RT. Each stained section was imaged at objectives: 4×, 10×, 20× and 40×. For each objective image, light parameters were optimized and kept consistent across all sections. For SLC7A11 analysis, all images that were captured at 20× were then imported into ImageJ freeware (NIH, Bethesda, Md.). A maximum entropy threshold algorithm was applied to all images in a completely blinded fashion to filter out all pixels that were not stained as DAB positive. The key parameter measured and reported is area fraction. Area fraction is the proportion of total pixels that are DAB positive in the ventral horn of the spinal cord. All statistical analyses were performed using JMP® 7.0, SAS Institute, Inc. Area fraction was compared with respect to treatment using 1-way ANOVA analysis, with a p-value of 0.05 considered significant.
The same test mice, spinal cord preparations and methods of analysis used in the neuroinflammatory study were identical to those used in the xCT quantitation study. Two neuroinflammatory cell populations were quantitated: (1) activated microglial cells using an antibody to the F4/80 antigen, and (2) activated astrocytes, using an antibody to the GFAP antigen. For each objective image, light parameters were optimized and kept consistent across all sections. Images that were captured at 20× were then imported into ImageJ freeware (NIH, Bethesda, Md.). A maximum entropy threshold algorithm was applied to all images in a completely blinded fashion to filter out all pixels that were not stained as DAB positive. 20× images were analyzed in a blinded fashion and mean area fraction occupied by stain was tabulated. […]

[3] = tested on: mouse model (anti-epileptic effect); details: approximately 260-320 mg/kg intraperitoneal; cited from earlier work
[4] = tested on: multiple sclerosis (both RR-MS and P-MS); details: patients; 2 grams of sulfasalazine per day; cited from earlier work
[5] = in vivo; details: SOD1, mouse, spinal cord/plasma, ip, 200 mg/kg
[6] = sulfasalazine vs vehicle, SOD1 mice, 200 mg/kg IP two times per day

## O=C(O)c1cc(/N=N/c2ccc(S(=O)(=O)Nc3ccccn3)cc2)ccc1O [Sulfasalazine, 2-hydroxy-5-[(E)-2-{4-[(pyridin-2-yl)sulfamoyl]phenyl}diazen-1-yl]benzoic acid]
[1]; SOD1 mice vs vehicle, 200 mg/kg IP two times per day, p=0.07
  increase of median absolute survival: 3.5 days
[1]; SOD1 mice, 200 mg/kg IP two times per day
  effect on time of disease onset: no statistical effect
[1]; Total Observations
  Expected Days, Sulfasalazine: 2050 days
[1]; before definitive disease onset (neurological score 0 or 1)
  Observed Days Minus Expected Days: no significant difference
[1]; death (neurological score 4)
  Observed Days Minus Expected Days: no significant difference
  Expected Days, Sulfasalazine: 27 days
[1]; death (neurological score 4), cohort n=27
  Observed Days, Sulfasalazine: 27 days
[1]; [6]
  Absolute Change in Mean Day of Death: 3.7 days
  Absolute Change in Mean Day of Definitive Neurological Disease: −1.2 day
  Absolute Change in Total Days of Survival after Onset of Definitive Disease: 4.9 days
  Percent Change in Mean Day of Death: 2.9%
  Percent Change in Mean Day of Definitive Neurological Disease: −1.0%
[1]; sulfasalazine vs vehicle, SOD1 mice, 200 mg/kg IP two times per day, 200 mg/kg
  Percent Change in Total Days of Survival after Onset of Definitive Disease (increased lifespan after onset): 39%
[1]; total days before definitive disease onset (neurological score 0 or 1), normalized for number of animals
  Expected Days, Sulfasalazine: 1722 days
[1]; total days in definitive neurological disease (neurological score 2 or 3)
  Expected Days, Sulfasalazine: 301 days
[2]; Cervical, Day 85
  Decreased activation in sulfasalazine treated SOD1 vs. vehicle treated SOD1 mice: No decrease
[2]; Cervical, Day 100, p < 0.01
  Decreased activation in sulfasalazine treated SOD1 vs. vehicle treated SOD1 mice: significantly lowered
[2]; Cervical, Day 100, p < 0.01, listed as sulfasalazine
  Decreased activation in sulfasalazine treated SOD1 vs. vehicle treated SOD1 mice: Strong decrease
[2]; Combined (cervical, thoracic, lumbar), Day 85, p < 0.05
  Decreased activation in sulfasalazine treated SOD1 vs. vehicle treated SOD1 mice: Decrease
[2]; Combined (cervical, thoracic, lumbar), Day 100
  Decreased activation in sulfasalazine treated SOD1 vs. vehicle treated SOD1 mice: Trend
[2]; Lumbar, Day 85, p < 0.05
  Decreased activation in sulfasalazine treated SOD1 vs. vehicle treated SOD1 mice: significantly lowered
[2]; Lumbar, Day 85, p < 0.05, listed as sulfasalazine
  Decreased activation in sulfasalazine treated SOD1 vs. vehicle treated SOD1 mice: Decrease
[2]; Lumbar, Day 100
  Decreased activation in sulfasalazine treated SOD1 vs. vehicle treated SOD1 mice: did not effect
[2]; Lumbar, Day 100, listed as sulfasalazine
  Decreased activation in sulfasalazine treated SOD1 vs. vehicle treated SOD1 mice: No decrease
[2]; Thoracic, Day 85
  Decreased activation in sulfasalazine treated SOD1 vs. vehicle treated SOD1 mice: Trend
[2]; Thoracic, Day 100
  Decreased activation in sulfasalazine treated SOD1 vs. vehicle treated SOD1 mice: No decrease
[3]
  duration of anti-epileptic effect: disappears by three hours after administration
[4]
  accumulation of disability in the P-MS subgroup: statistically significant reduction in their accumulation of disability
  disease progression in the RR-MS sub-group: did not slow disease progression
[5]
  Kp at 15 min: 0.16

From patent US10398713B2, “Compositions and methods for the treatment of neurodegenerative and other diseases” (Glialogix, Inc., priority 2013, dated 2019)
